US20180344199A1, “OPTIMIZED PLACEMENT OF CANNULA FOR DELIVERY OF THERAPEUTICS TO THE BRAIN” (The Regents of the University of California, priority 2010, published 2018)
Values joined by “and” are separate entries in the source; they are usually repeats but may differ in a detail not shown here. Identical values can stand only once.

How the values were obtained:
[1] = CED infusion of gadoteridol into NHP brainstem, real-time MRI distribution; format: in vivo, Cynomolgus monkeys and Rhesus macaques
[2] = CED co-infusion of AAV2 vectors and Gd into NHP thalamus, MRI volume of Gd distribution; conditions: co-infused with AAV2-GDNF, Vi ~150 μL, n=5, mean±SEM
[3] = CED infusion of GDL or free Gadoteridol into NHP putamen, real-time MRI distribution; format: in vivo, Rhesus macaques and Cynomolgus monkeys
Method: Thirteen normal adult NHP, including 11 Rhesus macaques (7 male and 4 female, aged from 8 to 18 years; mean age 11.9 years, weight 4-9.4 kg) and 2 Cynomolgus monkeys (one male and one female, age 7 years for both; weight 5 and 7 kg respectively) were the subjects in the present study. Experimentation was performed according to the National Institutes of Health guidelines and to the protocols approved by the Institutional Animal Care and Use Committee at the University of California San Francisco (San Francisco, Calif.) and at Valley Biosystems (Sacramento, Calif.). Thirteen animals received a total of 25 intracranial infusion of GDL (2 mM) or free Gadoteridol (2 mM, Prohance; Bracco Diagnostics, Princeton, N.J.) into the putamen. Infusions were performed by previously established CED techniques for NHP (Bankiewicz, Eberling et al. 2000). GDL were prepared as previously described (Fiandaca, Varenika et al. 2008) (Krauze, McKnight et al. 2005).
Primates received a baseline MRI before surgery to visualize anatomical landmarks and to generate stereotactic coordinates of the proposed target infusion sites for each animals. NHPs underwent neurosurgical procedures to position the MRI-compatible guide cannula over the putamen. Each customized guide cannula was cut to a specified length, stereotactically guided to its target through a burr-hole created in the skull, and secured to the skull by dental acrylic. The tops of the guide cannula assemblies were capped with stylet screws for simple access during the infusion procedure. Animals recovered for at least 2 weeks before initiation of infusion procedures. Animals were anesthetized with isoflurane (Aerrane; Ohmeda Pharmaceutical Products Division, Liberty Corner, N.J.) during real-time MRI acquisition. Each animal's head was placed in an MRI-compatible stereotactic frame, and a baseline MRI was performed. Vital signs, such as heart rate and PO2, were monitored throughout the procedure.
Briefly, the infusion system consisted of a fused silica reflux-resistant cannula (Fiandaca, Varenika et al. 2008) (Krauze, McKnight et al. 2005) that was connected to a loading line (containing GDL or free Gadoteridol), an infusion line with oil, and another infusion line with trypan blue solution. A 1-ml syringe (filled trypan blue solution) mounted onto a micro-infusion pump (BeeHive, Bioanalytical System, West Lafayette, Ind.), regulated the flow of fluid through the system. Based on MRI coordinates, the cannula was mounted onto a stereotactic holder and manually guided to the targeted region of the brain through the previously placed guide cannula. The length of each infusion cannula was measured to ensure that the distal tip extended 3 mm beyond the length of the respective guide. This created a stepped design at the tip of the cannula to maximize fluid distribution during CED procedures and minimize reflux along the cannula tract. We refer to this transition from fused silica tip to a fused silica sheath as the “step”, and all positioning data is derived from the position of this step because of its unambiguous visibility on MRI.
After securing placement of the infusion cannula, the CED procedures were initiated with real-time MRI data being acquired (real-time convective delivery, RCD). We used the same infusion parameters for every NHP infused throughout the study. Infusion rates were as follows: 0.1 μl/min was applied when lowering cannula to targeted area and increased at 10-min intervals to 0.2, 0.5, 0.8, 1.0, and 2.0 μl/min. Approximately 15 min after infusion, the cannula was withdrawn from the brain. Four animals received multiple infusions. Each animal had at least a 4-week interval between each infusion procedure.
NHPs were sedated with a mixture of ketamine (Ketaset, 7 mg/kg, IM) and xylazine (Rompun, 3 mg/kg, IM). After sedation, each animal was placed in a MRI-compatible stereotactic frame. The ear-bar and eye-bar measurements were recorded, and an intravenous line was established. […]

[4] = CED infusion of gadoteridol into NHP thalamus, real-time MRI distribution; format: in vivo, Cynomolgus monkeys and Rhesus macaques
[5] = 6 cases, good distribution with leakage

For CC(O)CN1CCN(CC(=O)[O-])CCN(CC(=O)[O-])CCN(CC(=O)[O-])CC1.[Gd+3] (centres unmarked) [Gadoteridol], the “Vd in the brainstem, mean volume” value ([1]; 8 infusions) was 585.2±75.4 mm^3, the “percent of Vd in the brainstem vs total Vd in brainstem and thalamus” value ([1]; 100% in 7 cases, 95.6% in one case, listed as Gd) was 100% and 95.6% and the maximum distribution ([1]; brainstem, for Vi 212 μl) was “around 695.6 mm^3”. The distribution ratio ([1]; brainstem, maximum distribution at Vi 212 μl) was 328.1%, the “Vd in thalamus (leakage)” value ([1]; one brainstem case with leakage into thalamus at end of infusion) was 30.5 mm^3 and the “ratio of Vd/Vi, mean” value [2] was 4.68±0.33. The “final Vd in WMT, mean volume” value ([3]; blue zone, 4 cases) was 19.4±0.01 mm3, the “infusion volume when leakage was first seen, mean” value ([3]; blue zone, 4 cases) was 6.9 ± 0.9 µL and the “final Vd in WMT, mean volume” value ([3]; red zone, 13 cases) was 66.8±0.01 mm^3. The “infusion volume when leakage was first seen, mean” value ([3]; red zone, 13 cases) was 7.9 ± 1.7 µL, the “Vd in the putamen, mean volume” value ([3]; step in blue zone, 4 cases) was 139.6±0.05 mm^3 and the “Vd in the putamen, mean volume” value ([3]; step in green zone, 8 cases) was 116.4±0.04 mm^3. The “Vd (putamen), mean volume” value ([3]; step in red zone, 13 cases) was 62.1±0.01 mm3, the “Vd in the thalamus, mean volume” value [4, 5] was 191.3±38.1 mm^3 and the “percent of Vd in the thalamus, mean” value [4, 5] was 89.0%±1.3%. The “Vd of leakage, mean volume” value ([4]; 6 cases, leakage into WMT / lenticular fasciculus) was 24.3±7.0 mm^3, the “Vd in the thalamus, mean volume” value ([4]; 8 cases with excellent distribution) was 405.6±66.6 mm^3 and the “percent of Vd in the thalamus vs total Vd in thalamus and WMT” value ([4]; all 8 cases with excellent distribution) was 100%. For the same compound, the maximum distribution ([4]; thalamus, for Vi 158 μl) was “around 660.3 mm^3” and the distribution ratio ([4]; thalamus, maximum distribution at Vi 158 μl) was 417.9%.
